Reference: PubChem BioAssay (NCI)
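Five compound concentrations were applied to cells in 96-well plates for 48 hours; endpoints were derived by simple linear interpolation of the resulting dose-response curve. The concentration for 50% growth inhibition is given as GI50. Definition used: TGI = concentration required for complete inhibition of growth.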

Assays:
Assay in all cases: inhibition of tumour cell growth, NCI panel, 48 h
CCRF-CEM leukemia = test system: CCRF-CEM leukemia
OVCAR-3 ovarian = test system: OVCAR-3 ovarian
M19-MEL melanoma = test system: M19-MEL melanoma
HCC-2998 colon = test system: HCC-2998 colon
HOP-18 NSCLC = test system: HOP-18 NSCLC
SNB-75 CNS = test system: SNB-75 CNS
KM12 colon = test system: KM12 colon
UO-31 renal = test system: UO-31 renal
HS 578T breast = test system: HS 578T breast

SMILES	TGI (CCRF-CEM leukemia)	TGI (OVCAR-3 ovarian)	TGI (M19-MEL melanoma)	TGI (HCC-2998 colon)	TGI (HOP-18 NSCLC)	TGI (SNB-75 CNS)	TGI (KM12 colon)	TGI (UO-31 renal)	GI50 (CCRF-CEM leukemia)	GI50 (OVCAR-3 ovarian)	GI50 (HCC-2998 colon)	GI50 (HS 578T breast)	TGI (HS 578T breast)	GI50 (SNB-75 CNS)	GI50 (KM12 colon)	GI50 (UO-31 renal)	GI50 (M19-MEL melanoma)	GI50 (HOP-18 NSCLC)
C/C(O)=C(\N=O)C(=O)NCCc1ccccc1	> 100 µM	> 100 µM	> 100 µM	> 100 µM	> 100 µM	> 100 µM	> 100 µM	> 100 µM										
NC(=O)c1cnc(N[C@@H]2CCCC[C@@H]2N)nc1Nc1cccc(-n2nccn2)c1	19.8 µM	18.4 µM		4.82 µM		12.4 µM	10.2 µM	14.7 µM	5 µM	5.94 µM	1.99 µM	3.37 µM	20.7 µM	2.21 µM	2.15 µM	3.32 µM		
CCN1C2=NC(=O)N(C)C(=O)C2(Cl)C(C(SC)S(=O)(=O)c2ccc(C)cc2)c2ccccc21 (configuration not stated)	25.7 µM	80.2 µM	61.5 µM	> 100 µM		53.7 µM		76.1 µM										
Oc1ccc(Cc2ccc(O)c3ncccc23)c2cccnc12	> 100 µM	> 100 µM		> 100 µM		> 100 µM	> 100 µM	> 100 µM	0.209 µM	0.138 µM	0.524 µM	0.0365 µM	> 100 µM	0.0368 µM	0.149 µM	0.0322 µM		
CCN(Cc1cccc(OC)c1)c1ccc(CO)c(Cl)c1	> 82.6 µM	4.34 µM		33.8 µM		62 µM	40.5 µM	45.1 µM	24.8 µM	0.477 µM	12.5 µM	18.3 µM	61.9 µM	16.3 µM	17.1 µM	8.4 µM		
O=c1cccc(C#CC#C[C@H]2O[C@@H]2CO)o1	0.431 µM	0.689 µM		2.19 µM		3.52 µM	3.47 µM	6.29 µM	0.17 µM	0.286 µM	0.788 µM	2.91 µM	9.69 µM	1.89 µM	0.986 µM	2.59 µM		
COc1cc(Nc2nc3cc(N)cc(N)c3nc2-c2ccccc2)cc(OC)c1	0.167 µM	20.1 µM		> 100 µM		44.9 µM	31.2 µM	45 µM		3.9 µM	24.3 µM	10.9 µM	63.8 µM	3.7 µM	13.3 µM	8.87 µM		
Cc1ccc2c(c1)nc(C(=O)c1ccco1)c(C(F)(F)F)[n+]2[O-]	> 100 µM	> 100 µM		> 100 µM		> 100 µM	> 100 µM	> 100 µM	> 100 µM	> 100 µM	> 100 µM	2.33 µM	5.76 µM	76.7 µM	> 100 µM	47.2 µM		
CC1=C([Se]CC(OC(=O)CC[Se]c2ccccc2)C(=O)NCCCCCC(=O)OCc2ccccc2)C(=O)c2ccccc2C1=O (configuration not stated)	> 100 µM	4.71 µM		7.46 µM		6.23 µM	5.45 µM	7.41 µM	3.61 µM	1.83 µM	2.9 µM	2.47 µM	34.2 µM	1.71 µM	2.27 µM	2.07 µM		
CC[C@]1(O)CC2CN(CCc3c([nH]c4ccccc34)[C@@](C(=O)OC)(c3cc4c(cc3OC)N(C)[C@H]3[C@@](O)(C(=O)OC)[C@H](OC(C)=O)[C@]5(CC)C=CCN6CC[C@]43[C@@H]65)C2)C1 (some centres not stated)	18.5 µM	< 0.005 µM		0.0195 µM		5.05 µM	0.141 µM	15.9 µM	< 0.005 µM	< 0.005 µM	< 0.005 µM	< 0.005 µM	10.2 µM	< 0.005 µM	< 0.005 µM	0.511 µM		
CCCCCCCCCC(=O)CC(=O)c1ccc(O)cc1O	> 100 µM	45 µM		46.3 µM	81.9 µM	95.5 µM	61 µM	98 µM										
CC(=O)OC[C@H]1O[C@@H](n2ccc(=O)[nH]c2=O)[C@H](OC(C)=O)[C@@H]1OC(C)=O	> 100 µM	> 100 µM		> 100 µM		> 100 µM	> 100 µM	> 100 µM	> 100 µM	> 100 µM	> 100 µM	> 100 µM	> 100 µM	> 100 µM	> 100 µM	> 100 µM		
O=S(=O)([O-])c1cccc2cccc(N=Cc3ccccc3[O-])c12.O=S(=O)([O-])c1cccc2cccc(N=Cc3ccccc3[O-])c12.[O]=[U]=[O]	> 100 µM	> 100 µM	> 100 µM		> 100 µM	57.9 µM		> 100 µM	18.4 µM	> 100 µM				23.3 µM		50.7 µM	> 100 µM	> 100 µM
O=C(O)c1ccc2c(c1)Cc1cc([N+](=O)[O-])ccc1-2	> 100 µM	> 100 µM		> 100 µM		> 100 µM	> 100 µM	> 100 µM					> 100 µM					
COc1ccccc1-[n+]1cc(-c2ccc(-c3ccccc3)cc2)n2c1CCCCC2	23.9 µM	12.4 µM		12.6 µM		13.4 µM	3.17 µM	11.1 µM	0.224 µM	0.233 µM	0.318 µM	1.07 µM	31.8 µM	0.325 µM	0.288 µM	2.19 µM		
c1ccc(Cc2nc3ccc(Nc4ncnc5ccccc45)cc3[nH]2)cc1	> 25 µM	> 25 µM		> 25 µM		> 25 µM	> 25 µM	> 25 µM	> 25 µM	> 25 µM	> 25 µM	> 25 µM	> 25 µM	> 25 µM	> 25 µM	8.98 µM		
COCCn1cc(-c2csc(-c3c[nH]c4ccccc34)n2)c2cccnc21	> 100 µM	> 100 µM		> 100 µM		24.7 µM	> 100 µM	> 100 µM	> 100 µM	2.94 µM	4.08 µM	9.14 µM	> 100 µM	1.43 µM	0.762 µM	4.15 µM		
